The text below walks through data of patent publication US7125990B2, “Imidazolyl derivatives as corticotropin releasing factor inhibitors” (Bristol-Myers Squibb COmpany, priority 2001, dated 2006).

A value given as a limit tells only on which side of the number the result lay.

This assay concerns the target T1, CRF1 receptors (Homo sapiens, UniProt P34998).
T1 construct: endogenous in cells; host or cells: IMR-32 cells, transformed with 2.5 µM 5'-bromo-2'-deoxyuridine for 10 days; membrane preparation
T1 sequence (P34998 24-415): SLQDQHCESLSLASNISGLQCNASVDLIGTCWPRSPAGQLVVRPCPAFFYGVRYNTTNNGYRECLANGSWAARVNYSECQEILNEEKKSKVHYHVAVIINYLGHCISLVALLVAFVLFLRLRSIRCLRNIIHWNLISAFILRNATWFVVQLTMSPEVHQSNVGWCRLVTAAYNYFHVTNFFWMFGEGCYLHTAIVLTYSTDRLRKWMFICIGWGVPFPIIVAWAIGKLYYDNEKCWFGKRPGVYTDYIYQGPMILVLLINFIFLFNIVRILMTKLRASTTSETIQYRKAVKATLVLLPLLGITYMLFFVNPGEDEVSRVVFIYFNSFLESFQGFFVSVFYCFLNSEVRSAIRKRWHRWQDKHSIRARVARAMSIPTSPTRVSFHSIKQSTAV
Kind of assay: CRF1 receptor radioligand binding assay ([125I]-oCRF competition, IMR-32 cell membranes). Conditions: IMR-32 cell membranes, [125I]-oCRF 100 pM; read-out: Ki (CRF-1R). In short, it runs like this: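 Buffer: Tris pH 7.2 with MgCl2, BSA, Triton X-100, aprotinin, leupeptin; reaction stopped with ice-cold wash and filtered. Nonspecific binding set with 10 μM oCRF.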
As to `CCCCN(CC)Cc1c(CC)nc2n(-c3c(C)cc(C)cc3C)c(Cl)cn12` [Example 294, 3-[(N-Butyl-N-ethylamino)methyl]-6-chloro-2-ethyl-7-(2,4,6-trimethylphenyl)-7H-imidazo[1,2-a]imidazole], the Ki (usually the dissociation constant of the complex between target and ligand, obtained from inhibition or displacement) is under 1000 nM.

With `CCc1nc2n(c1C(=O)N(CC)CC1CC1)CCN2c1ccc(C(C)C)cc1Br` [Example 40, 7-(2-Bromo-4-isopropyl-phenyl)-2-ethyl-6,7-dihydro-5H-imidazo[1,2-a]imidazole-3-carboxylic acid cyclopropylmethyl-ethyl-amide], the Ki was under 10000 nM.

For `C=CCN(CC=C)C(=O)c1c(CC)nc2n(-c3c(C)cc(C)cc3C)c(Cl)cn12` [Example 295, 6-Chloro-2-ethyl-7-(2,4,6-trimethylphenyl)-7H-imidazo[1,2-a]imidazole-3-carboxylic acid N,N-diallylamide], the Ki was under 1000 nM.

`CCCN(Cc1c(C(F)(F)F)nc2n1CCCN2c1c(C)cc(C)cc1C)CC1CC1` [Example 59, Cyclopropylmethyl-propyl-[2-trifluoromethyl-8-(2,4,6-trimethyl-phenyl)-5,6,7,8-tetrahydro-imidazo[1,2-a]pyrimidin-3-ylmethyl]-amine]: the Ki is under 100 nM.

As for `Cc1cc(C)c(N2CCCn3c2nc(C(F)(F)F)c3CN2CCCC2Cc2ccccc2)c(Cl)c1` (stereo not shown) [Example 138, 3-(2-Benzyl-pyrrolidin-1-ylmethyl)-8-(2-chloro-4,6-dimethyl-phenyl)-2-trifluoromethyl-5,6,7,8-tetrahydro-imidazo[1,2-a]pyrimidine], the inhibition constant (Ki) is under 100 nM.

`CC(C)c1ccc(-n2c3ccccc3n3c(CN(CC4CC4)CC(F)(F)C(F)(F)F)c(C(F)(F)F)nc23)c(Br)c1` [Example 191, [8-(2-Bromo-4-isopropyl-phenyl)-2-trifluoromethyl-8H-1,3a,8-triaza-cyclopenta[α]inden-3-ylmethyl]-cyclopropylmethyl-(2,2,3,3,3-pentafluoro-propyl)-amine]: the Ki was under 1000 nM.

Regarding `CCc1nc2n(c1C(=O)N(CC1CC1)CC(F)(F)F)CCN2c1c(C)cc(Cl)cc1Cl` [Example 30, 7-(2,4-Dichloro-6-methyl-phenyl)-2-ethyl-6,7-dihydro-5H-imidazo[1,2-a]imidazole-3-carboxylic acid cyclopropylmethyl-(2,2,2-trifluoro-ethyl)-amide], the Ki is under 100 nM.

For `Cc1cc(C)c(N2CCCn3c2nc(C(F)(F)F)c3CN(CCC(F)(F)F)Cc2cccc(F)c2)c(Cl)c1` [Example 133, [8-(2-Chloro-4,6-dimethyl-phenyl)-2-trifluoromethyl-5,6,7,8-tetrahydro-imidazo[1,2-a]pyrimidin-3-ylmethyl]-(3-fluoro-benzyl)-(3,3,3-trifluoro-propyl)-amine], the Ki was under 1000 nM.

Turning to `CCCN(CCC)C(=O)c1c(CC)nc2n1CCN2c1c(C)cc(C)cc1C` [Example 11, 2-Ethyl-7-(2,4,6-trimethyl-phenyl)-6,7-dihydro-5H-imidazo[1,2-a]imidazole-3-carboxylic acid dipropyl-amide], the Ki was under 1000 nM.

On to `CCCN(Cc1cccc(F)c1)Cc1c(C(F)(F)F)nc2n(-c3c(C)cc(C)cc3C)c(Cl)cn12` [Example 340, [6-Chloro-2-trifluoromethyl-7-(2,4,6-trimethyl-phenyl)-7H-imidazo[1,2-a]imidazol-3-ylmethyl]-(3-fluoro-benzyl)-propyl-amine], for which the Ki was under 1000 nM.

Consider `CCCN(CCC(F)(F)F)Cc1c(C(F)(F)F)nc2n(-c3c(C)cc(C)cc3C)c3ncccc3n12` [Example 221, Propyl-[2-trifluoromethyl-8-(2,4,6-trimethyl-phenyl)-8H-1,3a,7,8-tetraaza-cyclopenta[α]inden-3-ylmethyl]-(3,3,3-trifluoro-propyl)-amine], for which the Ki is under 1000 nM.

On to `CCN(Cc1c(C(F)(F)F)nc2n1CCCN2c1c(C)cc(C)cc1Cl)CC1CC1` [Example 113, [8-(2-Chloro-4,6-dimethyl-phenyl)-2-trifluoromethyl-5,6,7,8-tetrahydro-imidazo[1,2-a]pyrimidin-3-ylmethyl]-cyclopropylmethyl-ethyl-amine], for which the Ki is under 100 nM.

Take `C=C(C)CN(CC)Cc1c(C(F)(F)F)nc2n1CCCN2c1c(C)cc(C)cc1C` [Example 71, Ethyl-(2-methyl-allyl)-[2-trifluoromethyl-8-(2,4,6-trimethyl-phenyl)-5,6,7,8-tetrahydro-imidazo[1,2-a]pyrimidin-3-ylmethyl]-amine]: the Ki is under 100 nM.

On to `CCCN(CC1CC1)C(=O)c1c(C)nc2n(-c3c(C)cc(C)cc3C)c(Cl)cn12` [Example 283, 6-Chloro-2-methyl-7-(2,4,6-trimethyl-phenyl)-7H-imidazo[1,2-a]imidazole-3-carboxylic acid cyclopropylmethyl-propyl-amide], for which the Ki was under 100 nM.

On to `CCc1nc2n(-c3c(C)cc(C)cc3C)c(Cl)cn2c1C(=O)N(CC)Cc1ccncc1` [Example 297, 6-Chloro-2-ethyl-7-(2,4,6-trimethylphenyl)-7H-imidazo[1,2-a]imidazole-3-carboxylic acid N-ethyl-N-(pyridin-4-yl)methylamide], for which the inhibition constant (Ki) was under 1000 nM.

On to `CCN(Cc1ccccc1)Cc1c(C(F)(F)F)nc2n(-c3ccc(C(C)C)cc3Br)c3ccccc3n12` [Example 208, Benzyl-[8-(2-bromo-4-isopropyl-phenyl)-2-trifluoromethyl-8H-1,3a,8-triaza-cyclopenta[α]inden-3-ylmethyl]-ethyl-amine], for which the Ki is under 10000 nM.

Turning to `CCCCN(CC)Cc1c(C(F)(F)F)nc2n(-c3c(C)cc(C)cc3C)c3ncccc3n12` [Example 231, Butyl-ethyl-[2-trifluoromethyl-8-(2,4,6-trimethyl-phenyl)-8H-1,3a,7,8-tetraaza-cyclopenta[α]inden-3-ylmethyl]-amine], the Ki was under 1000 nM.

As for `Cc1cc(C)c(-n2c(Cl)cn3c(CN(C)Cc4ccco4)c(C(F)(F)F)nc23)c(C)c1` [Example 314, [6-Chloro-2-trifluoromethyl-7-(2,4,6-trimethyl-phenyl)-7H-imidazo[1,2-a]imidazol-3-ylmethyl]-furan-2-ylmethyl-methyl-amine], the Ki is under 1000 nM.

For the compound `C=CCN(CCC)Cc1c(C(F)(F)F)nc2n1CCCN2c1c(C)cc(C)cc1C` [Example 95, Allyl-propyl-[2-trifluoromethyl-8-(2,4,6-trimethyl-phenyl)-5,6,7,8-tetrahydro-imidazo[1,2-a]pyrimidin-3-ylmethyl]-amine], the Ki is under 100 nM.

Take `CCCN(Cc1ccc(Cl)cc1)C(=O)c1c(CC)nc2n1CCN2c1c(C)cc(C)cc1C` [Example 21, 2-Ethyl-7-(2,4,6-trimethyl-phenyl)-6,7-dihydro-5H-imidazo[1,2-a]imidazole-3-carboxylic acid (4-chloro-benzyl)-propyl-amide]: the Ki was under 10000 nM.

Turning to `CCCC(CCC)c1c(CC)nc2n1CCN2c1c(C)cc(C)cc1C` [Example 49, 6-Ethyl-5-(1-propyl-butyl)-1-(2,4,6-trimethyl-phenyl)-2,3-dihydro-1H-imidazo[1,2-a]imidazole], the Ki is under 1000 nM.

Regarding `CCCN(CCC)C(=O)c1c(CC)nc2n(-c3c(C)cc(C)cc3C)c(Cl)cn12` [Example 292, 6-Chloro-2-ethyl-7-(2,4,6-trimethylphenyl)-7H-imidazo[1,2-a]imidazole-3-carboxylic acid N,N-dipropylamide], the inhibitory constant (Ki) is under 100 nM.

As to `CCc1nc2n(c1C(=O)N(CC1CC1)CC(F)(F)C(F)(F)F)CCN2c1ccc(C(C)C)cc1Br` [Example 37, 7-(2-Bromo-4-isopropyl-phenyl)-2-ethyl-6,7-dihydro-5H-imidazo[1,2-a]imidazole-3-carboxylic acid cyclopropylmethyl-(2,2,3,3,3-pentafluoro-propyl)-amide], the inhibition constant (Ki) is under 1000 nM.

As for `CCCN(CCC)Cc1c(C(F)(F)F)nc2n(-c3c(C)cc(C)cc3C)c(Cl)cn12` [Example 344, [6-Chloro-2-trifluoromethyl-7-(2,4,6-trimethyl-phenyl)-7H-imidazo[1,2-a]imidazol-3-ylmethyl]-dipropyl-amine], the Ki is under 100 nM.

As to `Cc1cc(C)c(N2CCCn3c2nc(C(F)(F)F)c3CN(CC2CC2)CC(F)(F)F)c(C)c1` [Example 73, Cyclopropylmethyl-(2,2,2-trifluoro-ethyl)-[2-trifluoromethyl-8-(2,4,6-trimethyl-phenyl)-5,6,7,8-tetrahydro-imidazo[1,2-a]pyrimidin-3-ylmethyl]-amine], the Ki is under 10 nM.

In the case of `CCCN(Cc1c(C)nc2n(-c3c(C)cc(C)cc3C)c3ccc(F)cc3n12)CC1CC1` [Example 145, Cyclopropylmethyl-[5-fluoro-2-methyl-8-(2,4,6-trimethyl-phenyl)-8H-1,3a,8-triaza-cyclopenta[a]inden-3-ylmethyl]-propyl-amine], the Ki is under 100 nM.

As for `C=CCN(CCC)Cc1c(C(F)(F)F)nc2n1CCCN2c1c(C)cc(C)cc1Cl` [Example 131, Allyl-[8-(2-chloro-4,6-dimethyl-phenyl)-2-trifluoromethyl-5,6,7,8-tetrahydro-imidazo[1,2-a]pyrimidin-3-ylmethyl]-propyl-amine], the Ki was under 100 nM.

Take `C=CCN(CC=C)Cc1c(C(F)(F)F)nc2n1CCCN2c1c(C)cc(C)cc1C` [Example 67, Diallyl-[2-trifluoromethyl-8-(2,4,6-trimethyl-phenyl)-5,6,7,8-tetrahydro-imidazo[1,2-a]pyrimidin-3-ylmethyl]-amine]: the Ki was under 100 nM.
